Like-named read-outs stand apart in the source and are kept apart here. Non-standard residues stand in square brackets, D forms with d. Residues, ends and D or L forms follow the SMILES beside them. 1Nal = N[C@@H](Cc1cccc2ccccc12)C(=O)O; Aib = CC(C)(N)C(=O)O
Columns and labels:
[1] = target: T1, LCAT (purified from human plasma) (Homo sapiens, UniProt P04180); assay: LCAT activation assay; format: biochemical
T1 construct: from tissue; host or cells: human plasma
T1 sequence (P04180 25-440): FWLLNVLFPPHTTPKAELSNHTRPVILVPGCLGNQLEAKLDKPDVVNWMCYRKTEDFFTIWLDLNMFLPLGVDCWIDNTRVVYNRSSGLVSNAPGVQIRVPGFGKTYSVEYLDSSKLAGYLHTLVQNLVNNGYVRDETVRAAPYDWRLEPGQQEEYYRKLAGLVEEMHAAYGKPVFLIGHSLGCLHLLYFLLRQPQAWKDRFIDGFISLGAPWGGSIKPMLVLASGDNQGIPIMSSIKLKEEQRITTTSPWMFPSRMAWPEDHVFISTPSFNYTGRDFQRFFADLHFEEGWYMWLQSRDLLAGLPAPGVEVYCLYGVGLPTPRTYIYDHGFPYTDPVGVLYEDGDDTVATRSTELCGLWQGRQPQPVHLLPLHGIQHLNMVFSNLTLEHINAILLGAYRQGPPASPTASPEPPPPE
Summary of the method: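 Substrate SUVs of EPC or POPC with 14C-cholesterol (20:1 molar ratio), in 10 mM Tris, 0.14 M NaCl, 1 mM EDTA, pH 7.4, were preincubated with peptide or equal mass of plasma ApoA-I. Reaction started with human plasma LCAT; activation was measured as cholesterol-to-ester conversion relative to ApoA-I (100%).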

[2] = Circular dichroism helicity determination; format: physicochemical; details: for He (%) TFE: 5 μM peptide, 90% vol TFE; for He (%) TFE / He (%) SUVs: 37° C.; for He (%) free: unbound peptide 5 μM in 5 mM phosphate buffer, pH 7.4, 37° C.; for He (%) SUVs: peptide-SUV complexes (20:1 EPC:Chol., Ri=30 and Ri=50)
Method: Far UV circular dichroism spectra were recorded between 190 and 260 nm (in 0.5 nm or 0.2 nm increments) with a AVIV62DS spectrometer (AVIV Associates, Lakewood, N.J., USA) equipped with a thermoelectric cell holder and sample changer. The instrument was calibrated with (+)-10-[…]. Between one and three scans were collected for each sample, using 10 cm, 5 cm, 1 cm and 0.1 cm path length quartz Suprasil cells, respectively, for peptide concentrations of 10^−7 M to 10^−4 M. The bandwidth was fixed at 1.5 nm and the scan speed to 1s per wavelength step. The reported data are the mean of at least 2 or 3 independent measurements.
After background substraction, spectra were converted to molar ellipticity (θ) per residue in deg. […] dmol^−1. The peptide concentration was determined by amino acid analysis and also by absorption spectrometry on a Perkin Elmer Lambda 17 UV/Visible spectrophotometer when the peptide contained a chromophore (tryptophane, dansyl, naphtylalanine).
CD spectra were obtained with free, unbound peptide (5 μM in 5 mM phosphate buffer, pH 7.4); with peptide-SUV complexes (20:1 EPC:Chol., Ri=30 and Ri=50); with peptide-micelle complexes (1-myristoyl-2-hydroxy-sn-glycero-3-phosphatidyl choline, Ri=100); and with free, unbound peptide in the presence of 2,2,2-trifluoroethanol (TFE) (5 μM peptide, 90% vol TFE).
The SUVs were obtained by dispersing the lipids (10 mM, 20:1 EPC:Chol., Avanti Polar Lipids, AL) in phosphate buffer (5 mM, pH 7.4) with bubbling N2 for 5 min., followed by sonication (1.5 hr.) in a bath sonicator. The homogeneity of the preparation was checked by FPLC.
The micelles were obtained by dispersing the lipid (6 mM 1-myristoyl-2-hydroxy-sn-glycero-3-phosphatidyl choline, Avanti Polar Lipids, AL) in phosphate buffer (5 mM, pH 7.4) with bubbling N2 for 5 min., followed by vortexing.
To obtain the peptide-SUV complexes, SUVs were added to the peptide (5 μM in 5 mM phosphate buffer, pH 7.4) at a phospholipid-peptide molar ratio (Ri) of 30 or 50.
To obtain the peptide-micelle complexes, micelles were added to the peptide (5 μM in 5 mM phosphate buffer, pH 7.4) at a Ri of 100.
All spectra were recorded at 37° C.
The degree of helicity of the peptides in the various conditions was determined from the mean residue ellipticity at 222 nm (Chen et al., 1974, Biochemistry 13:3350-3359) or by comparing the CD spectra obtained to reference spectra available on databases (16 helical reference spectra from Provencher & Glockner, 1981, Biochemistry 20:33-37; denatured protein reference spectra from Venyaminov et al., 1993, Anal. Biochem. 214:17-24) using the CONTIN curve-fitting algorithm version 2DP, CD-1 pack (August 1982) (Provencher, 1982, Comput. Phys. Commun. 27:213-227, 229-242). Acceptable fit was determined using the statistical analysis methodology provided by the CONTIN algorithm. The error of all methods was ±5% helicity.

[3] = LCAT activation as compared with native human ApoA-I (= 100%), equivalent masses
[4] = percent helicity, peptide-micelle complexes, Ri=100, 37° C.

SMILES	ACTIVITY (%) LCAT [1, 3]	He (%) TFE ([2]; percent helicity)	He (%) free ([2]; percent helicity)	He (%) SUVs ([2]; percent helicity)	He (%) mics [2, 4]	ACTIVITY (%) LCAT [1]	He (%) mics [2]
CC(C)C[C@H](NC(=O)[C@H](C)NC(=O)[C@H](CCC(=O)O)NC(=O)[C@H](CC(C)C)NC(=O)[C@H](CC(C)C)NC(=O)[C@H](CCC(=O)O)NC(=O)[C@H](CC(N)=O)NC(=O)[C@H](CC(C)C)NC(=O)[C@H](CC(C)C)NC(=O)[C@H](CCC(=O)O)NC(=O)[C@H](CCCNC(=N)N)NC(=O)[C@H](Cc1ccccc1)NC(=O)[C@H](CC(C)C)NC(=O)[C@H](CC(=O)O)NC(=O)[C@H](CC(C)C)NC(=O)[C@@H](NC(=O)[C@@H]1CCCN1)C(C)C)C(=O)N[C@@H](CCCCN)C(=O)N[C@@H](CCC(N)=O)C(=O)N[C@@H](CCCCN)C(=O)N[C@@H](CC(C)C)C(=O)N[C@@H](CCCCN)C(=O)O [compound 4]	93%	94%	80%	97%	95%		
CC(C)C[C@H](NC(=O)[C@H](C)NC(=O)[C@H](CCC(=O)O)NC(=O)[C@H](CC(C)C)NC(=O)C(C)(C)NC(=O)[C@H](CCC(=O)O)NC(=O)[C@H](CC(N)=O)NC(=O)[C@H](CC(C)C)NC(=O)[C@H](CC(C)C)NC(=O)[C@H](CCC(=O)O)NC(=O)[C@H](CCCNC(=N)N)NC(=O)[C@H](Cc1ccccc1)NC(=O)[C@H](CC(C)C)NC(=O)[C@H](CC(=O)O)NC(=O)[C@H](CC(C)C)NC(=O)[C@@H](NC(=O)[C@@H]1CCCN1)C(C)C)C(=O)N[C@@H](CCCCN)C(=O)N[C@@H](CCC(N)=O)C(=O)N[C@@H](CCCCN)C(=O)N[C@@H](CC(C)C)C(=O)N[C@@H](CCCCN)C(=O)O [compound 6, PVLDLFRELLNEXLEALKQKLK] (H-PVLDLFRELLNE[Aib]LEALKQKLK-OH)	80%	99%	57%	70%	93%		
CC(C)C[C@H](NC(=O)[C@H](C)NC(=O)[C@H](CCC(=O)O)NC(=O)[C@H](Cc1cccc2ccccc12)NC(=O)[C@H](CC(C)C)NC(=O)[C@H](CCC(=O)O)NC(=O)[C@H](CC(N)=O)NC(=O)[C@H](CC(C)C)NC(=O)[C@H](CC(C)C)NC(=O)[C@H](CCC(=O)O)NC(=O)[C@H](CCCNC(=N)N)NC(=O)[C@H](Cc1ccccc1)NC(=O)[C@H](CC(C)C)NC(=O)[C@H](CC(=O)O)NC(=O)[C@H](CC(C)C)NC(=O)[C@@H](NC(=O)[C@@H]1CCCN1)C(C)C)C(=O)N[C@@H](CCCCN)C(=O)N[C@@H](CCC(N)=O)C(=O)N[C@@H](CCCCN)C(=O)N[C@@H](CC(C)C)C(=O)N[C@@H](CCCCN)C(=O)O [compound 27, PVLDLFRELLNELZEALKQKLK] (H-PVLDLFRELLNEL[1Nal]EALKQKLK-OH)	44%	81%	72%	82%	92%		
CC(C)C[C@H](NC(=O)[C@H](C)NC(=O)[C@H](CCC(=O)O)NC(=O)[C@H](CC(C)C)NC(=O)[C@H](CC(C)C)NC(=O)[C@H](CCC(=O)O)NC(=O)[C@H](CC(N)=O)NC(=O)[C@H](CC(C)C)NC(=O)[C@H](CC(C)C)NC(=O)[C@H](CCC(=O)O)NC(=O)[C@H](CCCNC(=N)N)NC(=O)[C@H](Cc1ccccc1)NC(=O)[C@H](CC(C)C)NC(=O)[C@H](CC(=O)O)NC(=O)[C@H](CC(C)C)NC(=O)[C@@H](NC(=O)[C@@H]1CCCN1S(=O)(=O)c1cccc2c(N(C)C)cccc12)C(C)C)C(=O)N[C@@H](CCCCN)C(=O)N[C@@H](CCC(N)=O)C(=O)N[C@@H](CCCCN)C(=O)N[C@@H](CC(C)C)C(=O)N[C@@H](CCCCN)C(=O)O [compound 30]		90%	85%	98%		38%	90%
CC(C)C[C@H](NC(=O)[C@H](C)NC(=O)[C@H](CCC(=O)O)NC(=O)[C@H](CC(C)C)NC(=O)C(C)(C)NC(=O)[C@H](CCC(=O)O)NC(=O)[C@H](CC(N)=O)NC(=O)[C@H](CC(C)C)NC(=O)[C@H](CC(C)C)NC(=O)[C@H](CCC(=O)O)NC(=O)[C@H](CC(C)C)NC(=O)[C@H](Cc1ccccc1)NC(=O)[C@H](CC(C)C)NC(=O)[C@H](CC(=O)O)NC(=O)[C@H](CC(C)C)NC(=O)[C@@H](NC(=O)[C@@H]1CCCN1)C(C)C)C(=O)N[C@@H](CCCCN)C(=O)N[C@@H](CCC(N)=O)C(=O)N[C@@H](CCCCN)C(=O)N[C@@H](CC(C)C)C(=O)N[C@@H](CCCCN)C(=O)O [compound 31, PVLDLFLELLNEXLEALKQKLK] (H-PVLDLFLELLNE[Aib]LEALKQKLK-OH)	34%	90%	49%		98%		
CC(C)C[C@H](NC(=O)[C@H](C)NC(=O)[C@H](CCC(=O)O)NC(=O)[C@H](CC(C)C)NC(=O)[C@H](CC(C)C)NC(=O)[C@H](CCC(=O)O)NC(=O)[C@H](CC(N)=O)NC(=O)[C@H](CC(C)C)NC(=O)[C@H](CC(C)C)NC(=O)[C@H](CCC(=O)O)NC(=O)[C@H](CCCNC(=N)N)NC(=O)[C@H](Cc1ccccc1)NC(=O)[C@H](Cc1cccc2ccccc12)NC(=O)[C@H](CC(=O)O)NC(=O)[C@H](CC(C)C)NC(=O)[C@@H](NC(=O)[C@@H]1CCCN1)C(C)C)C(=O)N[C@@H](CCCCN)C(=O)N[C@@H](CCC(N)=O)C(=O)N[C@@H](CCCCN)C(=O)N[C@@H](CC(C)C)C(=O)N[C@@H](CCCCN)C(=O)O [compound 34, PVLDZFRELLNELLEALKQKLK] (H-PVLD[1Nal]FRELLNELLEALKQKLK-OH)	32%	62%	58%	68%	67%		
CC(C)C[C@H](NC(=O)[C@H](CCCCN)NC(=O)[C@H](CCC(N)=O)NC(=O)[C@H](CCCCN)NC(=O)[C@H](Cc1c[nH]c2ccccc12)NC(=O)[C@H](C)NC(=O)[C@H](CCC(=O)O)NC(=O)[C@H](CC(C)C)NC(=O)C(C)(C)NC(=O)[C@H](CCC(=O)O)NC(=O)[C@H](CC(N)=O)NC(=O)[C@H](CC(C)C)NC(=O)[C@H](CC(C)C)NC(=O)[C@H](CCC(=O)O)NC(=O)[C@H](CCCNC(=N)N)NC(=O)[C@H](Cc1ccccc1)NC(=O)[C@H](CC(C)C)NC(=O)[C@H](CC(=O)O)NC(=O)[C@H](CC(C)C)NC(=O)[C@@H](NC(=O)[C@@H]1CCCN1)C(C)C)C(=O)N[C@@H](CCCCN)C(=O)O [compound 38, PVLDLFRELLNEXLEAWKQKLK] (H-PVLDLFRELLNE[Aib]LEAWKQKLK-OH)	29%	49%	25%	21%	49%		

Source: patent US7273848B2, “Apolipoprotein A-I agonists and their use to treat dyslipidemic disorders” (priority 1997, dated 2007)
